Our source for the inhibition values is patent US20120196899A1, “METHODS AND PRODUCTS FOR TREATING INFLAMMATION” (Rock Creek Pharmaceuticals, Inc., priority 2010, published 2012).

In this assay the target is T1, nAChR α7 (Homo sapiens, UniProt P36544).
T1 construct: host or cells: CHO cells
As to the kind of experiment: cell-based. The note with it: with 300 μM Ach + 10 μM PNU-120596, 10 μM MLA = full inhibition, read-out: Normalized % Inhibition.

T1 sequence (P36544 23-502): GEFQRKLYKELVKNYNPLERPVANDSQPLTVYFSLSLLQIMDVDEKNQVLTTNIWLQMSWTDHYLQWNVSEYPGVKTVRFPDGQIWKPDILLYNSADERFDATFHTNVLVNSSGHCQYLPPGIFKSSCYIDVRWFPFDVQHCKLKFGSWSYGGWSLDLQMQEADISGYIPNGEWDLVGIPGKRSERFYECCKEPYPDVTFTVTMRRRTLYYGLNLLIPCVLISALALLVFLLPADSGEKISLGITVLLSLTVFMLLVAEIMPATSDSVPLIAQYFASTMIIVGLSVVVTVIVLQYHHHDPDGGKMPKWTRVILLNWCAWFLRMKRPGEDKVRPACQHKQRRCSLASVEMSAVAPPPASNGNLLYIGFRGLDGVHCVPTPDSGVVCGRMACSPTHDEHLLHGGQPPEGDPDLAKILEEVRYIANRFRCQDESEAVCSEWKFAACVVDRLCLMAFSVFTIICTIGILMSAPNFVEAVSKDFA

Usually inhibition stands for the drop in the measured response relative to a control, in per cent. Turning to `C1=CCC(c2cccnc2)NC1` (racemic) [Anatabine (racemate)], the inhibition at 0.3 µM (test conc 0.3 μM) stood at 22.4%. In addition, the inhibition at 1 µM (test conc 1 μM) turned out to be 22.2%. Further, for the setting “test conc 3 μM”, the inhibition at 3 µM was 45.2%. For the same molecule, the inhibition at 10 µM (test conc 10 μM) came out at 33.4%. In addition, the inhibition at 30 µM (test conc 30 μM) was found to be 22.9%. In addition, for the setting “test conc 100 μM”, the inhibition at 100 µM was 22%. In addition, the inhibition at 300 µM (test conc 300 μM) came to 7.51%. For the same molecule, the inhibition at 1000 µM (test conc 1000 μM) was 10.8%.
